≈ marks a conversion by molar mass, not a printed value. Residues, ends and D or L forms follow the SMILES beside them.
Legend:
Details in all cases: nutrient broth, 1 × 10^5 CFU/mL, peptide 0.1 to 50 μg/mL, O.D.600 at 18 h, MIC = growth inhibition greater than 90%, three independent experiments in triplicate
[1] = system: K. pneumoniae ATCC27736 (DMST4739); assay type: cell-based, Klebsiella pneumoniae
Procedure: (§1) The biological activities of MpVT and its analogs were investigated by assaying antimicrobial activities and by studying the hemolysis activity. The minimal inhibitory concentrations (MIC) of the peptides were determined based on methods described by Anunthawan et al.. […] The MpVT4-7 could not detect antibacterial activity when using a peptide concentration lower than 50 μg/mL. The E. coli strains that were the most susceptible against MpVT peptides were selected for visualizing the bacterial morphology when treated with these peptides using a scanning electron microscope. The normal and abnormal morphologies of bacteria cells were visualized after 60 min treatment with the MpVT peptides (Figure 6).
(§2) The microorganisms; Staphylococcus auerus ATCC 27,853 (DMST 4739), Staphylococcus auerus ATCC 25923, Bacillus subtilis ATCC663, Escherichia coli 0157:H7, Escherichia coli DH5α, and Klebsiella pneumoniae ATCC27736 (DMST4739) were used to determine the MIC of MpVT and its analogs. The bacterial strains were inoculated to enter their log phases, and then the suspension was diluted in nutrient broth. The microorganisms were prepared at a final concentration of 1 × 10^5 CFU/mL. The peptides’ concentrations, ranging from 0.1 to 50 μg/mL, were determined. Serial doubling dilutions of various concentrations of MpVTs were made into a nutrient broth to a final volume of 100 μL in each well of a 96-well plate. A% inhibition = 100 − (O.D.600 at 18 h − O.D.600 at immediate treatment × 100/O.D.600 at […] of control − O.D.600 at 18 h of control − O.D.600 at immediate treatment of control). (1)

E. coli DH5α = assay type: cell-based, Escherichia coli
Procedure: as §1, §2

E. coli 0157:H7 = assay type: cell-based, Escherichia coli
Procedure: as §1, §2

B. subtilis ATCC663 = assay type: cell-based, Bacillus subtilis
Procedure: as §1, §2

[2] = system: P. aeruginosa ATCC 27,853 (DMST 4739); assay type: cell-based
Procedure: as §1, §2

S. aureus ATCC25923 = assay type: cell-based, Staphylococcus auerus
Procedure: as §1, §2

For `CC[C@H](C)[C@H](N)C(=O)N[C@@H](CC(N)=O)C(=O)N[C@@H](CC(C)C)C(=O)N[C@@H](CCCCN)C(=O)N[C@@H](C)C(=O)N[C@H](C(=O)N[C@@H](C)C(=O)N[C@@H](C)C(=O)N[C@@H](Cc1ccccc1)C(=O)N[C@@H](C)C(=O)N[C@@H](CCCCN)C(=O)N[C@@H](CCCCN)C(=O)N[C@@H](Cc1ccccc1)C(=O)N[C@H](C(=O)O)[C@@H](C)CC)[C@@H](C)CC` [MpVT1] (H-INLKAIAAFAKKFI-OH), which MIC [1] is on record?
Its MIC is 6.25 µg/mL (≈ 4.04 µM).

What about the MIC (E. coli DH5α) of the same compound?
Its MIC is 0.39 µg/mL (≈ 0.252 µM).

And the MIC (E. coli 0157:H7)?
The MIC was 6.25 µg/mL (≈ 4.04 µM).

And the MIC (B. subtilis ATCC663)?
Its MIC is 3.125 µg/mL (≈ 2.02 µM).

And the MIC [2]?
Its MIC is 6.25 µg/mL (≈ 4.04 µM).

What about the MIC (S. aureus ATCC25923) of the same compound?
The MIC was 12.50 µg/mL (≈ 8.08 µM).

Which results are given for `CC[C@H](C)[C@H](N)C(=O)N[C@@H](CC(N)=O)C(=O)N[C@@H](CC(C)C)C(=O)N[C@@H](CCCCN)C(=O)N[C@@H](C)C(=O)N[C@H](C(=O)N[C@@H](C)C(=O)N[C@@H](C)C(=O)N[C@@H](Cc1ccccc1)C(=O)N[C@@H](C)C(=O)N[C@@H](CCCCN)C(=O)N[C@@H](C)C(=O)N[C@@H](CC(C)C)C(=O)N[C@H](C(=O)O)[C@@H](C)CC)[C@@H](C)CC` [MpVT3] (H-INLKAIAAFAKALI-OH)?
MIC [1]: 25.00 µg/mL (≈ 17.2 µM); MIC (E. coli DH5α): 0.78 µg/mL (≈ 0.535 µM); MIC (E. coli 0157:H7): 50.00 µg/mL (≈ 34.3 µM); MIC (B. subtilis ATCC663): 12.50 µg/mL (≈ 8.58 µM); MIC [2]: 6.25 µg/mL (≈ 4.29 µM); MIC (S. aureus ATCC25923): 50.00 µg/mL (≈ 34.3 µM)

How did the MIC [1] turn out when `CC[C@H](C)[C@H](NC(=O)[C@H](Cc1ccccc1)NC(=O)[C@H](CCCCN)NC(=O)[C@H](CCCCN)NC(=O)[C@H](C)NC(=O)[C@H](Cc1ccccc1)NC(=O)[C@H](C)NC(=O)[C@H](C)NC(=O)[C@@H](NC(=O)[C@H](C)NC(=O)[C@@H](N)CCCCN)[C@@H](C)CC)C(=O)O` [MpVT4] (H-KAIAAFAKKFI-OH) was run?
Its MIC is over 50.00 µg/mL.

What about the MIC (E. coli DH5α) of the same compound?
Its MIC is 25.00 µg/mL (≈ 20.7 µM).

And the MIC (E. coli 0157:H7)?
Its MIC is over 50.00 µg/mL.

And the MIC (B. subtilis ATCC663)?
Its MIC is over 50.00 µg/mL.

And the MIC [2]?
Its MIC is 25.0 µg/mL (≈ 20.7 µM).

What about the MIC (S. aureus ATCC25923) of the same compound?
Its MIC is over 50.00 µg/mL.

Which MIC [1] does the source give for `CC[C@H](C)[C@H](NC(=O)[C@H](Cc1ccccc1)NC(=O)[C@H](Cc1ccccc1)NC(=O)[C@H](CCCCN)NC(=O)[C@H](CCCCN)NC(=O)[C@H](C)NC(=O)[C@H](Cc1ccccc1)NC(=O)[C@H](C)NC(=O)[C@H](C)NC(=O)[C@@H](NC(=O)[C@H](C)NC(=O)[C@@H](N)CCCCN)[C@@H](C)CC)C(=O)O` [MpVT5] (H-KAIAAFAKKFFI-OH) here?
Its MIC is over 50.00 µg/mL.

What about the MIC (E. coli DH5α) of the same compound?
Its MIC is 6.25 µg/mL (≈ 4.61 µM).

And the MIC (E. coli 0157:H7)?
Its MIC is over 50.00 µg/mL.

And the MIC (B. subtilis ATCC663)?
Its MIC is over 50.00 µg/mL.

And the MIC [2]?
The MIC was over 50.00 µg/mL.

And the MIC (S. aureus ATCC25923)?
Its MIC is over 50.00 µg/mL.

`CC[C@H](C)[C@H](NC(=O)[C@H](Cc1ccccc1)NC(=O)[C@H](CC(C)C)NC(=O)[C@H](C)NC(=O)[C@H](CCCCN)NC(=O)[C@H](C)NC(=O)[C@H](Cc1ccccc1)NC(=O)[C@H](C)NC(=O)[C@H](C)NC(=O)[C@@H](NC(=O)[C@H](C)NC(=O)[C@@H](N)CCCCN)[C@@H](C)CC)C(=O)O` [MpVT6] (H-KAIAAFAKALFI-OH) was tested. Which MIC [1] did it give?
Its MIC is over 50.00 µg/mL.

What about the MIC (E. coli DH5α) of the same compound?
Its MIC is 12.50 µg/mL (≈ 9.89 µM).

And the MIC (E. coli 0157:H7)?
Its MIC is over 50.00 µg/mL.

What about the MIC (B. subtilis ATCC663) of the same compound?
The MIC was over 50.00 µg/mL.

What about the MIC [2] of the same compound?
The MIC was over 50.00 µg/mL.

And the MIC (S. aureus ATCC25923)?
The MIC was over 50.00 µg/mL.

How did the MIC [1] turn out when `CC[C@H](C)[C@H](NC(=O)[C@H](Cc1ccccc1)NC(=O)[C@H](CC(C)C)NC(=O)[C@H](CCCCN)NC(=O)[C@H](C)NC(=O)[C@H](C)NC(=O)[C@H](Cc1ccccc1)NC(=O)[C@H](C)NC(=O)[C@H](C)NC(=O)[C@@H](NC(=O)[C@H](C)NC(=O)[C@@H](N)CCCCN)[C@@H](C)CC)C(=O)O` [MpVT7] (H-KAIAAFAAKLFI-OH) was run?
The MIC was over 50.00 µg/mL.

What about the MIC (E. coli DH5α) of the same compound?
Its MIC is 6.25 µg/mL (≈ 4.95 µM).

And the MIC (E. coli 0157:H7)?
Its MIC is over 50.00 µg/mL.

What about the MIC (B. subtilis ATCC663) of the same compound?
Its MIC is 50.00 µg/mL (≈ 39.6 µM).

What about the MIC [2] of the same compound?
Its MIC is over 50.00 µg/mL.

What about the MIC (S. aureus ATCC25923) of the same compound?
Its MIC is over 50.00 µg/mL.

Which MIC [1] does the source give for `CC[C@H](C)[C@H](N)C(=O)N[C@@H](CC(N)=O)C(=O)N[C@@H](CC(C)C)C(=O)N[C@@H](CCCCN)C(=O)N[C@@H](C)C(=O)N[C@H](C(=O)N[C@@H](C)C(=O)N[C@@H](C)C(=O)N[C@@H](Cc1ccccc1)C(=O)N[C@@H](C)C(=O)N[C@@H](CCCCN)C(=O)N[C@@H](CCCCN)C(=O)N[C@@H](CC(C)C)C(=O)N[C@H](C(=O)O)[C@@H](C)CC)[C@@H](C)CC` [MpVT] (H-INLKAIAAFAKKLI-OH) here?
Its MIC is 25.00 µg/mL (≈ 16.5 µM).

And the MIC (E. coli DH5α)?
The MIC was 3.125 µg/mL (≈ 2.06 µM).

What about the MIC (E. coli 0157:H7) of the same compound?
The MIC was 50.00 µg/mL (≈ 33 µM).

What about the MIC (B. subtilis ATCC663) of the same compound?
The MIC was 25.00 µg/mL (≈ 16.5 µM).

And the MIC [2]?
Its MIC is 25.00 µg/mL (≈ 16.5 µM).

And the MIC (S. aureus ATCC25923)?
Its MIC is 50.00 µg/mL (≈ 33 µM).

Reference: paper PMC8779355, “In Silico and In Vitro Structure–Activity Relationship of Mastoparan and Its Analogs” (Molecules, 2022)
